Measured values from US4500526A, “Cephalosporin derivatives” (Bristol-Myers Company, priority 1983, dated 1985).
Converted amounts (≈) assume the structure as drawn. Read-outs that look alike come from different tables or passages of the source.

Columns and labels:
[1] = tested on: M. morganii (1 strain), Ent. cloacae (2 strains) and Ser. marcescens (2 strains); test: MIC, two-fold serial agar dilution, group (G-)-II; assay type: cell-based; conditions: read-out: Geometric Mean of MIC
Protocol: (§1) In the primary evaluation of the compounds of this invention, the Minimum Inhibitory Concentrations (MIC's) of the compounds were determined by the two-fold serial agar dilution method in Mueller-Hinton agar against 32 strains of test organisms in six groups. The sample weights of the test compounds were adjusted according to the purity of each compound, so as to give a more accurate measure of the MIC's.
(G-)II: M. morganii (1 strain), Ent. cloacae (2 strains) and Ser.

[2] = tested on: Cephalothinsensitive E. coli (2 strains), Kl. pneumoniae (1 strain) and Pr. mirabilis (2 strains); test: MIC, two-fold serial agar dilution, group (G-)-Ia; assay type: cell-based; conditions: 5 strains, Mueller-Hinton agar, read-out: Geometric Mean of MIC
Protocol: as §1
(G-)Ia: Cephalothinsensitive E. coli (2 strains), Kl. pneumoniae (1
strain) and Pr. mirabilis (2 strains)

[3] = tested on: Penicillinresistant S. aureus (5 strains); test: MIC, two-fold serial agar dilution, group (G+)-Ib; assay type: cell-based; conditions: Staphylococcus aureus, read-out: Geometric Mean of MIC
Protocol: as §1
(G+)Ib: Penicillinresistant S. aureus (5 strains)

[4] = tested on: Penicillinsensitive S. aureus (5 strains); test: MIC, two-fold serial agar dilution, group (G+)-Ia; assay type: cell-based; conditions: Staphylococcus aureus, read-out: Geometric Mean of MIC
Protocol: as §1
(G+)Ia: Penicillinsensitive S. aureus (5 strains)

[5] = Mouse blood levels after single intramuscular injection; assay type: in vivo, mice; conditions: in vivo, im, 20 mg/kg
Protocol: The absorption of some of the preferred compounds were determined in mice following a single intramuscular injection of the test compound (dissolved in 0.1M phosphate buffer; pH 7) at a dosage of 20 mg/kg. Blood samples were collected from the orbital sinuses into heparinized capillary tubes and assayed in Nutrient Agar (pH 6.6) using E. coli Ess-22-31 as the test organism. The blood levels at various time intervals, the half-life values (t1/2) and the areas under the curve (AUC) are shown in Table 2.

[6] = tested on: Cephalothinresistant E. coli (3 strains) and Kl. pneumoniae (3 strains); test: MIC, two-fold serial agar dilution, group (G-)-Ib; assay type: cell-based; conditions: Escherichia coli, read-out: Geometric Mean of MIC
Protocol: as §1
(G-)Ib: Cephalothinresistant E. coli (3 strains) and Kl. pneumoniae (3

[7] = tested on: Ps. aeruginosa (6 strains); test: MIC, two-fold serial agar dilution, group (G-)-III; assay type: cell-based; conditions: Pseudomonas aeruginosa, read-out: Geometric Mean of MIC
Protocol: as §1
(G-)III: Ps. aeruginosa (6 strains)

N. gonorrhoeae (5) = test: In vitro activity against fastidious bacteria, two-fold serial agar dilution; assay type: cell-based; conditions: Neisseria gonorrhoeae, read-out: Geometric Mean of MIC
Protocol: (§2) The in vitro activity of some of the preferred compounds against 30 strains of fastidious bacteria was determined by the two-fold serial agar dilution method in Gonococcus agar (GC agar), and the results are shown in Table 3.

S. pyogenes (5 strains) = test: as above; assay type: cell-based; conditions: Streptococcus pyogenes; GC agar; read-out: Geometric Mean of MIC
Protocol: as §2

[8] = tested on: H. influenzae (3) (ampicillin resistant); test: as above; assay type: cell-based; conditions: Haemophilus influenzae, read-out: Geometric Mean of MIC
Protocol: as §2

S. pneumoniae (5) = test: as above; assay type: cell-based; conditions: Streptococcus pneumoniae; GC agar; read-out: Geometric Mean of MIC
Protocol: as §2

[9] = tested on: H. influenzae (7) (ampicillin sensitive); test: as above; assay type: cell-based; conditions: Haemophilus influenzae, GC agar, 7 strains, read-out: Geometric Mean of MIC
Protocol: as §2

N. meningitidis (5) = test: as above; assay type: cell-based; conditions: Neisseria meningitidis, read-out: Geometric Mean of MIC
Protocol: as §2

S. aureus Smith = test: Median protective dose in infected mice; assay type: in vivo; conditions: Staphylococcus aureus, im, immediately after intraperitoneal challenge, read-out: PD50
Protocol: (§3) The median protective dose (PD50) of some of the preferred compounds against various microorganisms was determined in mice by intramuscular administration of the test compound immediately after an intraperitoneal bacterial challenge.

E. coli Juhl = test: Median protective dose in infected mice; assay type: in vivo; conditions: Escherichia coli, im, immediately after intraperitoneal challenge, read-out: PD50
Protocol: as §3

P. aeruginosa A9843 = test: Median protective dose in infected mice; assay type: in vivo; conditions: Pseudomonas aeruginosa, im, immediately after intraperitoneal challenge, read-out: PD50
Protocol: as §3

[10] = (G-)-II, 5 strains, Mueller-Hinton agar
[11] = (G+)-Ib, 5 strains, Mueller-Hinton agar
[12] = (G+)-Ia, 5 strains, Mueller-Hinton agar
[13] = (G-)-III, 6 strains, Mueller-Hinton agar

SMILES: Nc1nc(/C(=N/OC2(C(=O)O)CCC2)C(=O)NC2C(=O)N3C(C(=O)[O-])=C(C[n+]4ccc5scnc5c4)CS[C@H]23)cs1 (stereo partly drawn) [Ie, 7-[(Z)-2-(2-Aminothiazol-4-yl)-2-(1-carboxycyclobut-1-oxyimino)-acetamido]-3-{(5-thiazolo[4,5-c]pyridinio)methyl}-3-cephem-4-carboxylate]
- MIC [1, 10]: 0.34 µg/mL (≈ 0.552 µM)
- MIC [2]: 0.023 µg/mL (≈ 0.0374 µM)
- MIC [3, 11]: 4.4 µg/mL (≈ 7.15 µM)
- MIC [4, 12]: 2.2 µg/mL (≈ 3.57 µM)
- AUC [5]: 7900 ng·h/mL
- concentration at 10 min [5]: 13000 ng/mL
- concentration at 20 min [5]: 12000 ng/mL
- concentration at 0.5 h [5]: 7500 ng/mL
- concentration at 40 min [5]: 4300 ng/mL
- concentration at 50 min [5]: 3000 ng/mL
- concentration at 1 h [5]: 2600 ng/mL
- concentration at 1.5 h [5]: 510 ng/mL
- concentration at 2 h [5]: 150 ng/mL
- half-life [5]: 16 min
- MIC [6]: 0.5 µg/mL (≈ 0.812 µM)
- MIC [7]: 1.3 µg/mL (≈ 2.11 µM)
- MIC (N. gonorrhoeae (5)): 0.1 µg/mL (≈ 0.162 µM)
- MIC (S. pyogenes (5 strains)): 0.2 µg/mL (≈ 0.325 µM)
- MIC [8]: 0.1 µg/mL (≈ 0.162 µM)
- MIC (S. pneumoniae (5)): 0.2 µg/mL (≈ 0.325 µM)
- MIC [9]: 0.1 µg/mL (≈ 0.162 µM)
- MIC (N. meningitidis (5)): 0.1 µg/mL (≈ 0.162 µM)
- ED50 (S. aureus Smith): 3.1 mg/kg
- ED50 (E. coli Juhl): 0.08 mg/kg
- ED50 (P. aeruginosa A9843): 1.8 mg/kg

SMILES: CO/N=C(\C(=O)NC1C(=O)N2C(C(=O)[O-])=C(C[n+]3ccc4sc(NC(=O)OC)nc4c3)CS[C@H]12)c1csc(N)n1 (stereo partly drawn) [Is, 7-[(Z)-2-(2-Aminothiazol-4-yl)-2-methoxyiminoacetamido]-3-(2-methoxycarbonylamino-5-thiazolo[4,5-c]pyridinio)methyl-3-cephem-4-carboxylate]
- MIC [1]: 0.6 µg/mL (≈ 0.992 µM)
- MIC [2]: 0.038 µg/mL (≈ 0.0628 µM)
- MIC [3, 11]: 0.8 µg/mL (≈ 1.32 µM)
- MIC [4, 12]: 0.46 µg/mL (≈ 0.761 µM)
- AUC [5]: 13000 ng·h/mL
- concentration at 10 min [5]: 19000 ng/mL
- concentration at 20 min [5]: 18000 ng/mL
- concentration at 0.5 h [5]: 14000 ng/mL
- concentration at 40 min [5]: 6700 ng/mL
- concentration at 50 min [5]: 4600 ng/mL
- concentration at 1 h [5]: 4600 ng/mL
- concentration at 1.5 h [5]: 2200 ng/mL
- concentration at 2 h [5]: 1100 ng/mL
- half-life [5]: 26 min
- MIC [6]: 0.69 µg/mL (≈ 1.14 µM)
- MIC [7, 13]: 14 µg/mL (≈ 23.2 µM)
- ED50 (S. aureus Smith): 1.2 mg/kg
- ED50 (E. coli Juhl): 0.018 mg/kg
- ED50 (P. aeruginosa A9843): 10 mg/kg

SMILES: CO/N=C(\C(=O)NC1C(=O)N2C(C(=O)[O-])=C(C[n+]3ccc4sc(N)nc4c3)CSC12)c1csc(N)n1 (stereo not drawn) [In, 7-[(Z)-2-(2-Aminothiazol-4-yl)-2-methoxyiminoacetamido]-3-[{5-(2-aminothiazolo[4,5-c]pyridinio)}methyl]-3-cephem-4-carboxylate]
- MIC [1, 10]: 0.17 µg/mL (≈ 0.311 µM)
- MIC [2]: 0.01 µg/mL (≈ 0.0183 µM)
- MIC [3, 11]: 0.72 µg/mL (≈ 1.32 µM)
- MIC [4, 12]: 0.32 µg/mL (≈ 0.585 µM)
- AUC [5]: 11000 ng·h/mL
- concentration at 10 min [5]: 14000 ng/mL
- concentration at 20 min [5]: 14000 ng/mL
- concentration at 0.5 h [5]: 7600 ng/mL
- concentration at 40 min [5]: 7000 ng/mL
- concentration at 50 min [5]: 4400 ng/mL
- concentration at 1 h [5]: 3900 ng/mL
- concentration at 1.5 h [5]: 2900 ng/mL
- concentration at 2 h [5]: 1000 ng/mL
- half-life [5]: 29 min
- MIC [6]: 0.096 µg/mL (≈ 0.176 µM)
- MIC [7, 13]: 1.9 µg/mL (≈ 3.48 µM)
- ED50 (S. aureus Smith): 0.9 mg/kg
- ED50 (E. coli Juhl): < 0.01 mg/kg
- ED50 (P. aeruginosa A9843): 2.8 mg/kg

SMILES: CO/N=C(\C(=O)NC1C(=O)N2C(C(=O)[O-])=C(C[n+]3ccc4sc(NC(=O)N5CCCC5)nc4c3)CS[C@H]12)c1csc(N)n1 (stereo partly drawn) [It, 7-[(Z)-2-(2-Aminothiazol-4-yl)-2-methoxyiminoacetamido]-3-[2-(pyrrolidin-1-ylcarbonylamino)-5-thiazolo[4,5-c]pyridinio]methyl-3-cephem-4-carboxylate]
- MIC [1, 10]: 2.8 µg/mL (≈ 4.35 µM)
- MIC [2]: 0.3 µg/mL (≈ 0.466 µM)
- MIC [3]: 1.6 µg/mL (≈ 2.49 µM)
- MIC [4, 12]: 0.53 µg/mL (≈ 0.823 µM)
- AUC [5]: 13000 ng·h/mL
- concentration at 10 min [5]: 19000 ng/mL
- concentration at 20 min [5]: 18000 ng/mL
- concentration at 0.5 h [5]: 11000 ng/mL
- concentration at 40 min [5]: 7800 ng/mL
- concentration at 50 min [5]: 6600 ng/mL
- concentration at 1 h [5]: 5400 ng/mL
- concentration at 1.5 h [5]: 2100 ng/mL
- concentration at 2 h [5]: 890 ng/mL
- half-life [5]: 24 min
- MIC [6]: 0.92 µg/mL (≈ 1.43 µM)
- MIC [7, 13]: 34 µg/mL (≈ 52.8 µM)
- ED50 (S. aureus Smith): 1.9 mg/kg
- ED50 (E. coli Juhl): 0.2 mg/kg
- ED50 (P. aeruginosa A9843): > 25 mg/kg

SMILES: CO/N=C(\C(=O)NC1C(=O)N2C(C(=O)[O-])=C(C[n+]3ccc4sc(C(=O)O)nc4c3)CS[C@H]12)c1csc(N)n1 (stereo partly drawn) [Iv, 7-[(Z)-2-(2-Aminothiazol-4-yl)-2-methoxyiminoacetamido]-3-(2-carboxy-5-thiazolo[4,5-c]pyridinio)methyl-3-cephem-4-carboxylate]
- MIC [1, 10]: 0.69 µg/mL (≈ 1.2 µM)
- MIC [2]: 0.014 µg/mL (≈ 0.0243 µM)
- MIC [3, 11]: 3.1 µg/mL (≈ 5.39 µM)
- MIC [4]: 1.6 µg/mL (≈ 2.78 µM)
- AUC [5]: 10000 ng·h/mL
- concentration at 10 min [5]: 17000 ng/mL
- concentration at 20 min [5]: 16000 ng/mL
- concentration at 0.5 h [5]: 10000 ng/mL
- concentration at 40 min [5]: 5900 ng/mL
- concentration at 50 min [5]: 4300 ng/mL
- concentration at 1 h [5]: 3000 ng/mL
- concentration at 1.5 h [5]: 1200 ng/mL
- concentration at 2 h [5]: < 200 ng/mL
- half-life [5]: 19 min
- MIC [6]: 1.2 µg/mL (≈ 2.08 µM)
- MIC [7, 13]: 5.7 µg/mL (≈ 9.9 µM)
- ED50 (S. aureus Smith): 2.6 mg/kg
- ED50 (E. coli Juhl): 0.024 mg/kg
- ED50 (P. aeruginosa A9843): 21 mg/kg

SMILES: CO/N=C(\C(=O)NC1C(=O)N2C(C(=O)[O-])=C(C[n+]3ccc4sc(NC(=O)CN)nc4c3)CS[C@H]12)c1csc(N)n1 (stereo partly drawn) [Iq, 7-[(Z)-2-(2-Aminothiazol-4-yl)-2-methoxyiminoacetamido]-3-(2-glycylamino-5-thiazolo[4,5-c]pyridinio)methyl-3-cephem-4-carboxylate]
- MIC [1]: 0.69 µg/mL (≈ 1.14 µM)
- MIC [2]: 0.038 µg/mL (≈ 0.0629 µM)
- MIC [3, 11]: 2.4 µg/mL (≈ 3.98 µM)
- MIC [4, 12]: 0.92 µg/mL (≈ 1.52 µM)
- AUC [5]: 16000 ng·h/mL
- concentration at 10 min [5]: 15000 ng/mL
- concentration at 20 min [5]: 17000 ng/mL
- concentration at 0.5 h [5]: 12000 ng/mL
- concentration at 40 min [5]: 11000 ng/mL
- concentration at 50 min [5]: 9900 ng/mL
- concentration at 1 h [5]: 8800 ng/mL
- concentration at 1.5 h [5]: 3400 ng/mL
- concentration at 2 h [5]: 1500 ng/mL
- half-life [5]: 28 min
- MIC [6]: 0.61 µg/mL (≈ 1.01 µM)
- MIC [7, 13]: 10 µg/mL (≈ 16.6 µM)
- ED50 (S. aureus Smith): 1.8 mg/kg
- ED50 (E. coli Juhl): 0.015 mg/kg
- ED50 (P. aeruginosa A9843): 12 mg/kg
